Data on 3 compounds can be found in patent US20210244773A1, “DENTAL PULP STEM CELLS AND USES THEREOF” (priority 2018, published 2021).

Assay type in all cases: cell-based, human
One data set relates to DPSC. Description: DPSC neuronal differentiation with TNF-alpha, lipoxin A4 or resolvin D1, flow cytometry (Example 3). Particulars: for TNF-alpha-induced decrease in β III-tubulin expression: FIG. 6, both 10 and 100 nM, p<0.05; for neuronal differentiation of DPSC without TNF-alpha: added alone at either dose (10 or 100 nM), data not shown. On the procedure: DPSC were isolated from the teeth of 7 healthy donors extracted during routine dental care. Samples were selected from our tooth biorepository based on the following donor characteristics: absence of medical comorbidities, no active medication use (aside from vitamin supplements), and absence of periodontal disease or tooth decay. The extracted pulp were plated and then cultured in basal medium, DMEM/F12+15% FBS supplemented with 100 U/mL non-essential amino acids (Gibco Life Technologies), 100 U/mL penicillin and streptomycin, and glutamine (Gibco Life Technologies). Outgrowing fibroblast-like cells appeared after 3-4 days and at that point the pulp was replated. The outgrowing cells were passaged after reaching 80% confluence and passage 4 was used for all experiments. Cells were seeded in duplicate with 2×10^4 cells/well. Neuronal differentiation was induced by replacing DMEM/F12+15% FBS culture media with neuronal differentiation media (NeuroCult NS-A Differentiation Kit-Human, StemCell Technologies Inc., Tukwila, Wash., USA) 48 hours after seeding. Cells were cultured under neuronal induction conditions for up to 21 days with culture media changed twice a week.
Varying concentrations of TNF-alpha (1, 10, 25, and 100 ng/mL, PeproTech, Rocky Hill, N.J., USA), lipoxin A4 (10 and 100 nM, Cayman Chemical, Ann Arbor, Mich., […], Cayman Chemical, Ann Arbor, Mich., USA) were added to the culture of both differentiated and non-differentiated cells starting 48 hours after seeding. In some experiments cells were treated with both TNF-alpha and lipoxin A4 or resolvin D1.
Expression of stem cell and neuronal cell markers was determined by flow cytometry. […] Cells were incubated for 1 hour at room temperature with the following primary antibodies against stem cell markers: rabbit anti-CD44 (Abcam, 1:30) and rabbit anti-OCT4 (Abcam, 1:200) and neuronal markers: rabbit anti-nestin (Abcam, 1:100), rabbit anti-doublecortin (Abcam, 1:50), mouse anti-β III-tubulin (Abcam, 1:100), and rabbit anti-NeuN (Abcam, 1:100). Fluorescence was achieved by incubating with secondary antibodies (Life Tech, Carlsbad, Calif., goat anti-rabbit IgG or goat anti-mouse IgG, dilution 1:500) for 1 hour at room temperature in a dark room. Cells were then subjected to flow cytometry and the percentage of cells expressing each marker was calculated.
Each analysis was performed in duplicate using cells from all donors. Median and interquartile ranges were calculated for each condition. Mann-Whitney tests were used for all statistical analyses; p<0.05 was considered significant.
(In general: In flow cytometry, cells or beads pass a laser one at a time.)

In the next data set the test system is dental pulp stem cells. As to the kind of experiment: MTT metabolic activity assay of dental pulp stem cells. On the procedure:
The metabolic activity of cells was determined by 3-(4,5-dimethylthiazol-2-yl)-2,5-diphenyltetrazolium bromide (MTT) assay at various time points to assess TNF-α toxicity on dental pulp stem cells. Cells were incubated for 4 hours in 5 mg/mL thiazolyl blue tetrazolium bromide (Sigma Aldrich, St. Louis, Mo., USA), the precipitate was suspended with 2-propanol (Sigma Aldrich, St. Louis, Mo., USA), and absorbance was determined in triplicate.
(Formazan colour is commonly taken as a measure of viable cells.)

The subject of data set [1] is DPSC expression of IL-6, IL-8, IL-1β. Description: Inflammatory cytokine gene expression in DPSC by real-time PCR. Particulars: all doses (1, 10, 25, 100 ng/ml), 24 hours. On the procedure:
Induction of inflammatory cytokine gene expression was determined by real-time PCR to optimize TNF-α treatment conditions. Total RNA was extracted from cells using Trizol (Life Technologies). 10 μL total RNA was reverse transcribed to cDNA using iScript cDNA Synthesis Kit (Bio-Rad, Hercules, Calif., USA). 1 μL cDNA used as template for real-time PCR amplification reactions using the iQ SYBR Green Supermix (Bio-Rad) in combination with […] of each gene-specific primer, according to manufacturer's instructions. Glyceraldehyde 3-phosphate dehydrogenase (GAPDH) was used as endogenous control. PCR reactions were conducted in duplicate using the following conditions: initial denaturation for 3 min at 95° C. followed by 40 cycles of 15 sec denaturation at 95° C. and 60 sec annealing at 60° C. Relative quantification was used for statistical analyses. The following primers were used: […]
(In general: In qPCR the cycle at which signal appears reflects the starting amount.)

Setting [2] is: 25 ng/ml TNF-alpha, 21 days of differentiation, versus absence of TNF-alpha.

Several values for one entry are separate records, joined by “and”; a condition that tells them apart may be missing. Equal values may be shown once.

In the case of `CCCCC[C@H](O)/C=C/C=C\C=C\C=C\[C@@H](O)[C@@H](O)CCCC(=O)O` [lipoxin A4], the “β III-tubulin expression (percent of cells)” value with DPSC (25 ng/ml TNF-alpha + 10 nM lipoxin A4) is 59%. Moreover, in the data set on DPSC (25 ng/ml TNF-alpha + 10 nM lipoxin A4, p=0.02), the “increase in β III-tubulin expression versus TNF-alpha alone” value stood at 84%. Also, in the data set with DPSC (25 ng/ml TNF-alpha + lipoxin A4 100 nM, p=0.03), the “β III-tubulin expression versus TNF-alpha alone” value is on record as “Results were similar”. In the data set on DPSC, the “TNF-alpha-induced decrease in β III-tubulin expression” value is “mitigated” and the “neuronal differentiation of DPSC without TNF-alpha” value is “no reduction or improvement”.

For `CC/C=C\C[C@H](O)/C=C/C=C\C=C\C=C\[C@@H](O)[C@@H](O)C/C=C\CCC(=O)O` [resolvin D1], the “increase in β III-tubulin expression versus TNF-alpha alone” value in the data set with DPSC (25 ng/ml TNF-alpha + 100 nM resolvin D1, p=0.02) came to 78%. In addition, in the data set with DPSC (25 ng/ml TNF-alpha + 100 ng/ml resolvin D1), the “β III-tubulin expression (percent of cells)” value turned out to be 57%. The “β III-tubulin expression versus TNF-alpha alone” value in the data set with DPSC (25 ng/ml TNF-alpha + resolvin D1 10 nM, p=0.09) was “approached significance”. In the data set on DPSC, the “TNF-alpha-induced decrease in β III-tubulin expression” value was “mitigated” and the “neuronal differentiation of DPSC without TNF-alpha” value was “no reduction or improvement”.

With TNF-alpha, the “toxicity to DPSC (succinic dehydrogenase metabolic activity)” value with dental pulp stem cells (TNF-alpha treatment) is given as “not toxic”. Also, in the data set with dental pulp stem cells (neural induction with 25 ng/ml or 100 ng/ml TNF-alpha, 10 days, versus absence of TNF-alpha), the “metabolic activity (MTT)” value was “significantly greater metabolic activity”. In addition, the “cells expressing the early marker doublecortin” value in the data set with DPSC (25 ng/ml TNF-alpha, 21 days of differentiation) is given as “non-significant increase”. In the data set on DPSC (setting [2]), the “expression of early neuronal marker nestin” value is recorded as “no difference”, the “expression of stem cell marker CD44” value is “no difference” and the “expression of stem cell marker OCT 3/4” value is reported as “no difference”. The “decrease in differentiated cells expressing β III-tubulin” value in the data set on DPSC (25 ng/ml TNF-alpha, neuronal differentiation, decrease) is 70% and 59%. In addition, the β-III tubulin expression result with DPSC (FIG. 6, presence of TNF-alpha) is given as “significant decrease”. Moreover, in the data set on DPSC (neural induction with 25 ng/ml TNF-alpha alone), the “β III-tubulin expression (percent of cells)” value stood at 32%. Further, the “DPSC expression of IL-6” value in data set [1] (FIG. 4A) was “significant increases”. Besides, in data set [1] (FIG. 4B), the “DPSC expression of IL-8” value is on record as “significant increases”. In addition, the “DPSC expression of IL-1β” value in data set [1] (FIG. 4C) is recorded as “significant increases”.
